Earlier results in US20130072576A1, “Cationic Nanogels For Biotechnological Applications” (Universidad Del Pais Vasco, priority 2010, published 2013).

- solubility in water: 8.5 % by weight
SMILES: C=CN1CCCCCC1=O [VCL, N-vinylcaprolactam]
